Test results from patent US20230139171A1 (SITA Information Networking Computing UK Limited, priority 2019, published 2023).

Legend:
Type in all cases: cell-based
human TLR7 = biological target: T1, human TLR7 (Homo sapiens, UniProt Q9NYK1); assay: TLR7 inhibition reporter assay (HEK-Blue cells, SEAP reporter, gardiquimod stimulation); settings: HEK-Blue cells overexpressing human TLR7, SEAP reporter, gardiquimod 7.5 μM; read-out: TLR7 IC50
T1 construct: host or cells: HEK-Blue cells
T1 sequence (Q9NYK1 27-1049): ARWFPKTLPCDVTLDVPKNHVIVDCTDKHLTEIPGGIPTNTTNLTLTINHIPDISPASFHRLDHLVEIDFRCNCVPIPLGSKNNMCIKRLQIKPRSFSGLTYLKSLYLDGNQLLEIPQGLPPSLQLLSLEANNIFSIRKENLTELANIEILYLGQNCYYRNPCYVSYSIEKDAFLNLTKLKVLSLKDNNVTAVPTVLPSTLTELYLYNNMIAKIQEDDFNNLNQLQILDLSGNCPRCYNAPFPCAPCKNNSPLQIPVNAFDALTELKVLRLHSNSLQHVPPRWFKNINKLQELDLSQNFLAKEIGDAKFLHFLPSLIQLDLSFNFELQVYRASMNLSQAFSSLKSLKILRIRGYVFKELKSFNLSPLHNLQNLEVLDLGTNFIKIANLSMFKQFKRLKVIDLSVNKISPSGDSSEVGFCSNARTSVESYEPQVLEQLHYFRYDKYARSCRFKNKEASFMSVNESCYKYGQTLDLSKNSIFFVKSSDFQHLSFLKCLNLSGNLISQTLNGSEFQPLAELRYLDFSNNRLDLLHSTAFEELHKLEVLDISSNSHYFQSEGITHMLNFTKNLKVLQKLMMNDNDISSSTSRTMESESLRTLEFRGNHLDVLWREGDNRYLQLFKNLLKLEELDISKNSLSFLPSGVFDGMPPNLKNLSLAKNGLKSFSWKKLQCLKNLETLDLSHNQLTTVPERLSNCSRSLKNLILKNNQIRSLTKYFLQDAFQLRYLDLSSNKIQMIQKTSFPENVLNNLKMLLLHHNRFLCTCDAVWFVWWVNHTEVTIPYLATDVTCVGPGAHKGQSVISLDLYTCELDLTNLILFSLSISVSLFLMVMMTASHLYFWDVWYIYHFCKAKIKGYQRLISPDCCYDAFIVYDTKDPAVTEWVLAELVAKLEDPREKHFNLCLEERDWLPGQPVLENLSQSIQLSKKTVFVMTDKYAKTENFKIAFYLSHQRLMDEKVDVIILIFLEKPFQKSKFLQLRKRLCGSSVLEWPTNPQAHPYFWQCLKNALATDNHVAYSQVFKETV
Outline: (§1)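 Agonists used: gardiquimod 7.5 μM (TLR7), R848 15.9 μM (TLR8), ODN2006 5 nM (TLR9), added after 30 min room-temperature compound pre-treatment (0.05 nM–50 μM) of receptor-overexpressing HEK-Blue cells. SEAP reporter (NF-κB/AP-1 driven) read after 22 h at 37 °C; inhibition scaled between agonist+DMSO and reference-inhibitor wells.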

human TLR8 = biological target: T2, human TLR8 (Homo sapiens, UniProt Q9NR97); assay: TLR8 inhibition reporter assay (HEK-Blue cells, SEAP reporter, R848 stimulation); settings: HEK-Blue cells overexpressing human TLR8, SEAP reporter, R848 15.9 μM; read-out: TLR8 IC50
T2 construct: host or cells: HEK-Blue cells
T2 sequence (Q9NR97 27-1041): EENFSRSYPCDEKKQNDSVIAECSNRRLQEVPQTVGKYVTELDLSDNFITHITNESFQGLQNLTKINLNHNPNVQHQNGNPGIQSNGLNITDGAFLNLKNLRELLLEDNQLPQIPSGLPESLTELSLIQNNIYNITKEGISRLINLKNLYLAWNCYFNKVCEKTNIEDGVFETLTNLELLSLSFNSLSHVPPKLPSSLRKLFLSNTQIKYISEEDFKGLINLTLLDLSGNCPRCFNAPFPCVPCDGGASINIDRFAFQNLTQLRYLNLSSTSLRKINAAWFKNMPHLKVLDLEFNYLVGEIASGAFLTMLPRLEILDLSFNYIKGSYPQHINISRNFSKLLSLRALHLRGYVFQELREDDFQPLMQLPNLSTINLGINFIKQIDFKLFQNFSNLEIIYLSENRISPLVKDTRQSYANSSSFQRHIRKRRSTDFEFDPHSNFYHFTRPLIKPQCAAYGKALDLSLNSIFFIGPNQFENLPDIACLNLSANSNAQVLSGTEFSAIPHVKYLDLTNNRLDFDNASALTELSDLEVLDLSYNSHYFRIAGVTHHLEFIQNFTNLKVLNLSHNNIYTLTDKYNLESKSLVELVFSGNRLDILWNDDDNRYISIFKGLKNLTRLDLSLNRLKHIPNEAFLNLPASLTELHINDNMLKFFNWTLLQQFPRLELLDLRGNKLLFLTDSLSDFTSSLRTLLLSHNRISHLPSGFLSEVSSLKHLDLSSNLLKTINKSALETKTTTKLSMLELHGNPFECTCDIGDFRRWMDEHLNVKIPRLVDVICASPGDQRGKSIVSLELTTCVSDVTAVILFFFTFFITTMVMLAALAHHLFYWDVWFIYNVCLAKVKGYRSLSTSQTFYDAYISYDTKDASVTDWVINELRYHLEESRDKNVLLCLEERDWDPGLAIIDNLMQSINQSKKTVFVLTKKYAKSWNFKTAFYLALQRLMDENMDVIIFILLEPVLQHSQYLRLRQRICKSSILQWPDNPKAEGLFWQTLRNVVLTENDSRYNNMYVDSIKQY
Outline: as §1

human TLR9 = biological target: T3, human TLR9 (Homo sapiens, UniProt Q9NR96); assay: TLR9 inhibition reporter assay (HEK-Blue cells, SEAP reporter, ODN2006 stimulation); settings: HEK-Blue cells overexpressing human TLR9, SEAP reporter, ODN2006 5 nM
T3 construct: host or cells: HEK-Blue cells
T3 sequence (Q9NR96 26-1032): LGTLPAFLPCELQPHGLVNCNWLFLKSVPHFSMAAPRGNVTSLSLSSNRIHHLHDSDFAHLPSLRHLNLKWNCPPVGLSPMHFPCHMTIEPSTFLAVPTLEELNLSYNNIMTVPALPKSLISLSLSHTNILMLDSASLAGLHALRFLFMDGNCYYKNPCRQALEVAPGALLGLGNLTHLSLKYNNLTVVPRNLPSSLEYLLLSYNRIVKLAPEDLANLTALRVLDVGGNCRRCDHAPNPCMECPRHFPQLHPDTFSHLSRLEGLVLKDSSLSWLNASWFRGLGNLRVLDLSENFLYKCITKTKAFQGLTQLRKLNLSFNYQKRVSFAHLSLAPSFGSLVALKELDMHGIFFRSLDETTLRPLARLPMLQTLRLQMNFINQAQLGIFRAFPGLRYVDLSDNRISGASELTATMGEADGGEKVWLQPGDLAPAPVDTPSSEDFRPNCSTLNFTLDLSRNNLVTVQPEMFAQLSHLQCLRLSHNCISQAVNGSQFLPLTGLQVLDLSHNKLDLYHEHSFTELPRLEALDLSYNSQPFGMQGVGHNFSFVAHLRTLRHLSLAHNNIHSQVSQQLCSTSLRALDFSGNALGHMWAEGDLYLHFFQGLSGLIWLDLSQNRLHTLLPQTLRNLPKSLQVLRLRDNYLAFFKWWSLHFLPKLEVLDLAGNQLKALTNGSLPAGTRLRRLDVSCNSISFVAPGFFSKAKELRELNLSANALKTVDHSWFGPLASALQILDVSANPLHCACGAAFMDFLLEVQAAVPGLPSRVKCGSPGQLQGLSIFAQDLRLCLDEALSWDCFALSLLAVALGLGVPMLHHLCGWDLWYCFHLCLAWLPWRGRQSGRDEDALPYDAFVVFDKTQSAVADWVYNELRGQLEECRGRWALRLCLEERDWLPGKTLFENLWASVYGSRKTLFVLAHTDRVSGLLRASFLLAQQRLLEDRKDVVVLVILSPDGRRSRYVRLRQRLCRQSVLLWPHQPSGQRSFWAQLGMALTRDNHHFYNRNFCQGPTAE
Outline: as §1

IC50 (human TLR7) | IC50 (human TLR8) | IC50 (human TLR9) | SMILES
4.64 nM | 3.38 nM | 5220 nM | CNCC(=O)N1C[C@H](C)N(c2nc3c(C(C)C)c(-c4cn5ncnc5c(C)c4C)[nH]c3s2)C[C@H]1C [Example 340, 1-((2R,5S)-4-(5-(7,8-dimethyl-[1,2,4]triazolo[1,5-a]pyridin-6-yl)-6-isopropyl-4H-pyrrolo[3,2-d]thiazol-2-yl)-2,5-dimethylpiperazin-1-yl)-2-(methylamino)ethan-1-one]
7.86 nM | 9 nM | 16500 nM | Cc1c(-c2[nH]c3sc(N4C[C@@H](C)N(C(=O)CN(C)C)C[C@@H]4C)nc3c2C(C)C)cn2ncnc2c1C [Example 341, 1-((2R,5S)-4-(5-(7,8-dimethyl-[1,2,4]triazolo[1,5-a]pyridin-6-yl)-6-isopropyl-4H-pyrrolo[3,2-d]thiazol-2-yl)-2,5-dimethylpiperazin-1-yl)-2-(dimethylamino) ethan-1-one]
6.3 nM | 7.94 nM | 19200 nM | Cc1c(-c2[nH]c3sc(N4CCN(C(=O)CN(C)C)C[C@@H]4C)nc3c2C(C)C)cn2ncnc2c1C [Example 346, (S)-1-(4-(5-(7,8-dimethyl-[1,2,4]triazolo[1,5-a]pyridin-6-yl)-6-isopropyl-4H-pyrrolo[3,2-d]thiazol-2-yl)-3-methylpiperazin-1-yl)-2-(dimethylamino)ethan-1-one]
8.11 nM | 0.12 nM | 21700 nM | Cc1c(-c2[nH]c3sc(N4CCN(C5CCOCC5)C[C@@H]4C)nc3c2C(C)C)cn2ncnc2c1C [Example 350, (S)-5-(7,8-dimethyl-[1,2,4]triazolo[1,5-a]pyridin-6-yl)-6-isopropyl-2-(2-methyl-4-(tetrahydro-2H-pyran-4-yl)piperazin-1-yl)-4H-pyrrolo[3,2-d]thiazole]
8.23 nM | 0.98 nM | 19800 nM | Cc1c(-c2[nH]c3sc(N4CCN(C(C)C)C[C@@H]4C)nc3c2C(C)C)cn2ncnc2c1C [Example 351, (S)-5-(7,8-dimethyl-[1,2,4]triazolo[1,5-a]pyridin-6-yl)-6-isopropyl-2-(4-isopropyl-2-methylpiperazin-1-yl)-4H-pyrrolo[3,2-d]thiazole]
14.4 nM | 1.09 nM | 24500 nM | Cc1c(-c2[nH]c3sc(N4CCN(CC5CC5)C[C@@H]4C)nc3c2C(C)C)cn2ncnc2c1C [Example 352, (S)-2-(4-(cyclopropylmethyl)-2-methylpiperazin-1-yl)-5-(7,8-dimethyl-[1,2,4]triazolo[1,5-a]pyridin-6-yl)-6-isopropyl-4H-pyrrolo[3,2-d]thiazole]
> 3130 nM | > 3130 nM | 6260 nM | Cc1cc(-c2[nH]c3sc(N4CCN(C(C)C)C[C@H]4C)nc3c2C(C)C)cn2ncnc12 [Example 366, (R)-6-isopropyl-2-(4-isopropyl-2-methylpiperazin-1-yl)-5-(8-methyl-[1,2,4]triazolo[1,5-a]pyridin-6-yl)-4H-pyrrolo[3,2-d] thiazole]
12.4 nM | 1.38 nM | 6440 nM | Cc1c(-c2[nH]c3sc(C(=O)NCCN4CCCC4)nc3c2C(C)C)cn2ncnc2c1C [Example 370, 5-(7,8-dimethyl-[1,2,4]triazolo[1,5-a]pyridin-6-yl)-6-isopropyl-N-(2-(pyrrolidin-1-yl)ethyl)-4H-pyrrolo[3,2-d]thiazole-2-carboxamide]
10.7 nM | 2.49 nM | 8880 nM | Cc1c(-c2[nH]c3sc(C(=O)NCCN(C)C)nc3c2C(C)C)cn2ncnc2c1C [Example 372, 5-(7,8-dimethyl-[1,2,4]triazolo[1,5-a]pyridin-6-yl)-N-(2-(dimethylamino)ethyl)-6-isopropyl-4H-pyrrolo[3,2-d]thiazole-2-carboxamide]
81.9 nM | 34.5 nM | 42100 nM | Cc1c(-c2[nH]c3sc(C(=O)N4CCS(=O)(=O)CC4)nc3c2C(C)C)cn2ncnc2c1C [Example 373, (5-(7,8-dimethyl-[1,2,4]triazolo[1,5-a]pyridin-6-yl)-6-isopropyl-4H-pyrrolo[3,2-d]thiazol-2-yl)(1,1-dioxidothiomorpholino)methanone]
11.7 nM | 9.33 nM | 41500 nM | Cc1c(-c2[nH]c3sc(C(=O)NCC(C)(C)N4CCOCC4)nc3c2C(C)C)cn2ncnc2c1C [Example 374, 5-(7,8-dimethyl-[1,2,4]triazolo[1,5-a]pyridin-6-yl)-6-isopropyl-N-(2-methyl-2-morpholinopropyl)-4H-pyrrolo[3,2-d]thiazole-2-carboxamide]
19.9 nM | 8.4 nM | 35600 nM | CC(=O)N1CCN(C(=O)c2nc3c(C(C)C)c(-c4cn5ncnc5c(C)c4C)[nH]c3s2)CC1 [Example 375, 1-(4-(5-(7,8-dimethyl-[1,2,4]triazolo[1,5-a]pyridin-6-yl)-6-isopropyl-4H-pyrrolo[3,2-d]thiazole-2-carbonyl)piperazin-1-yl)ethan-1-one]
